From the supplement of paper PMC10883282
± gives the standard deviation of the averaged measurements.

Columns and labels:
Test in all cases: relative viability vs DMSO control (72 h) (fraction); higher = more viable cells
SK-LMS-1 = system: SK-LMS-1
Summary of the method: (§1)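 Sarcoma cell lines were seeded in 384-well plates at densities chosen for 80–90% confluence, then 24 h later given 2.5 µl of serially diluted compound drawn from source plates spanning 10 mM to 0.0002 mM. They were held 72 h at 37 °C, 5% CO2, with 0.1% DMSO vehicle and a 5 µM positive control included. Relative viability was read with ATPLite as percent growth and averaged over up to triplicate wells. Rescaling placed full at 1 and none at 0.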

G401 = system: G401
Summary of the method: as §1

RD-ES = system: RD-ES
Summary of the method: as §1

KHOS-NP = system: KHOS-NP
Summary of the method: as §1

SW872 = system: SW872
Summary of the method: as §1

MES-SA = system: MES-SA
Summary of the method: as §1

VA-ES-BJ = system: VA-ES-BJ
Summary of the method: as §1

SW1353 = system: SW1353
Summary of the method: as §1

HT1080 = system: HT1080
Summary of the method: as §1

RD = system: RD
Summary of the method: as §1

SW684 = system: SW684
Summary of the method: as §1

SK-ES-1 = system: SK-ES-1
Summary of the method: as §1

SMILES: Cc1cc2c(F)c(Oc3ncnn4cc(OC[C@@H](C)O)c(C)c34)ccc2[nH]1 [Brivanib]
- relative viability (SK-LMS-1; 0.00017 µM): 1.03 ± 0.035
- relative viability (SK-LMS-1; 0.00051 µM): 1.03 ± 0.022
- relative viability (SK-LMS-1; 0.00152 µM): 1.02 ± 0.046
- relative viability (SK-LMS-1; 0.00457 µM): 1.03 ± 0.047
- relative viability (SK-LMS-1; 0.01372 µM): 1.02 ± 0.034
- relative viability (SK-LMS-1; 0.04115 µM): 1.03 ± 0.011
- relative viability (SK-LMS-1; 0.1235 µM): 1.06 ± 0.027
- relative viability (SK-LMS-1; 0.3704 µM): 1.02 ± 0.016
- relative viability (SK-LMS-1; 1.111 µM): 1.04 ± 0.034
- relative viability (SK-LMS-1; 3.333 µM): 1.03 ± 0.08
- relative viability (SK-LMS-1; 10 µM): 0.687 ± 0.018
- relative viability (G401; 0.00017 µM): 0.939 ± 0.045
- relative viability (G401; 0.00051 µM): 0.989 ± 0.036
- relative viability (G401; 0.00152 µM): 0.965 ± 0.039
- relative viability (G401; 0.00457 µM): 0.921 ± 0.015
- relative viability (G401; 0.01372 µM): 0.969 ± 0.058
- relative viability (G401; 0.04115 µM): 0.979 ± 0.075
- relative viability (G401; 0.1235 µM): 0.964 ± 0.036
- relative viability (G401; 0.3704 µM): 0.99 ± 0.034
- relative viability (G401; 1.111 µM): 0.979 ± 0.021
- relative viability (G401; 3.333 µM): 0.955 ± 0.0057
- relative viability (G401; 10 µM): 0.922 ± 0.033
- relative viability (RD-ES; 0.00017 µM): 0.961 ± 0.035
- relative viability (RD-ES; 0.00051 µM): 0.966 ± 0.018
- relative viability (RD-ES; 0.00152 µM): 0.985 ± 0.043
- relative viability (RD-ES; 0.00457 µM): 1 ± 0.019
- relative viability (RD-ES; 0.01372 µM): 0.996 ± 0.036
- relative viability (RD-ES; 0.04115 µM): 1 ± 0.033
- relative viability (RD-ES; 0.1235 µM): 1.01 ± 0.016
- relative viability (RD-ES; 0.3704 µM): 0.994 ± 0.047
- relative viability (RD-ES; 1.111 µM): 1 ± 0.026
- relative viability (RD-ES; 3.333 µM): 0.988 ± 0.025
- relative viability (RD-ES; 10 µM): 0.947 ± 0.044
- relative viability (KHOS-NP; 0.00017 µM): 1.04 ± 0.011
- relative viability (KHOS-NP; 0.00051 µM): 1.05 ± 0.017
- relative viability (KHOS-NP; 0.00152 µM): 1.05 ± 0.027
- relative viability (KHOS-NP; 0.00457 µM): 1.04 ± 0.018
- relative viability (KHOS-NP; 0.01372 µM): 1.06 ± 0.014
- relative viability (KHOS-NP; 0.04115 µM): 1.058 ± 0.0053
- relative viability (KHOS-NP; 0.1235 µM): 1.06 ± 0.012
- relative viability (KHOS-NP; 0.3704 µM): 1.07 ± 0.033
- relative viability (KHOS-NP; 1.111 µM): 1.05 ± 0.021
- relative viability (KHOS-NP; 3.333 µM): 1.07 ± 0.033
- relative viability (KHOS-NP; 10 µM): 0.964 ± 0.035
- relative viability (SW872; 0.00017 µM): 0.989 ± 0.024
- relative viability (SW872; 0.00051 µM): 0.999 ± 0.02
- relative viability (SW872; 0.00152 µM): 0.996 ± 0.042
- relative viability (SW872; 0.00457 µM): 1.04 ± 0.022
- relative viability (SW872; 0.01372 µM): 1.009 ± 0.0077
- relative viability (SW872; 0.04115 µM): 1 ± 0.024
- relative viability (SW872; 0.1235 µM): 1.03 ± 0.031
- relative viability (SW872; 0.3704 µM): 1.05 ± 0.019
- relative viability (SW872; 1.111 µM): 1.06 ± 0.019
- relative viability (SW872; 3.333 µM): 1.056 ± 0.0084
- relative viability (SW872; 10 µM): 1.02 ± 0.02
- relative viability (MES-SA; 0.00017 µM): 0.897 ± 0.043
- relative viability (MES-SA; 0.00051 µM): 0.908 ± 0.026
- relative viability (MES-SA; 0.00152 µM): 0.8964 ± 0.008
- relative viability (MES-SA; 0.00457 µM): 0.892 ± 0.021
- relative viability (MES-SA; 0.01372 µM): 0.919 ± 0.02
- relative viability (MES-SA; 0.04115 µM): 0.917 ± 0.025
- relative viability (MES-SA; 0.1235 µM): 0.921 ± 0.029
- relative viability (MES-SA; 0.3704 µM): 0.935 ± 0.017
- relative viability (MES-SA; 1.111 µM): 0.934 ± 0.014
- relative viability (MES-SA; 3.333 µM): 0.926 ± 0.031
- relative viability (MES-SA; 10 µM): 0.636 ± 0.018
- relative viability (VA-ES-BJ; 0.00017 µM): 1.01 ± 0.022
- relative viability (VA-ES-BJ; 0.00051 µM): 1.03 ± 0.043
- relative viability (VA-ES-BJ; 0.00152 µM): 1 ± 0.013
- relative viability (VA-ES-BJ; 0.00457 µM): 0.996 ± 0.045
- relative viability (VA-ES-BJ; 0.01372 µM): 0.96 ± 0.06
- relative viability (VA-ES-BJ; 0.04115 µM): 1 ± 0.015
- relative viability (VA-ES-BJ; 0.1235 µM): 1.011 ± 0.0041
- relative viability (VA-ES-BJ; 0.3704 µM): 1.03 ± 0.035
- relative viability (VA-ES-BJ; 1.111 µM): 1.06 ± 0.051
- relative viability (VA-ES-BJ; 3.333 µM): 1.07 ± 0.054
- relative viability (VA-ES-BJ; 10 µM): 1.07 ± 0.068
- relative viability (SW1353; 0.00017 µM): 0.963 ± 0.04
- relative viability (SW1353; 0.00051 µM): 0.991 ± 0.012
- relative viability (SW1353; 0.00152 µM): 0.952 ± 0.029
- relative viability (SW1353; 0.00457 µM): 0.96 ± 0.03
- relative viability (SW1353; 0.01372 µM): 0.976 ± 0.029
- relative viability (SW1353; 0.04115 µM): 0.935 ± 0.025
- relative viability (SW1353; 0.1235 µM): 0.944 ± 0.02
- relative viability (SW1353; 0.3704 µM): 1.01 ± 0.041
- relative viability (SW1353; 1.111 µM): 0.982 ± 0.035
- relative viability (SW1353; 3.333 µM): 1 ± 0.019
- relative viability (SW1353; 10 µM): 0.997 ± 0.046
- relative viability (HT1080; 0.00017 µM): 1.04 ± 0.013
- relative viability (HT1080; 0.00051 µM): 1.026 ± 0.0022
- relative viability (HT1080; 0.00152 µM): 1.05 ± 0.018
- relative viability (HT1080; 0.00457 µM): 1.06 ± 0.018
- relative viability (HT1080; 0.01372 µM): 1.07 ± 0.063
- relative viability (HT1080; 0.04115 µM): 1.02 ± 0.018
- relative viability (HT1080; 0.1235 µM): 1.02 ± 0.0094
- relative viability (HT1080; 0.3704 µM): 1.06 ± 0.067
- relative viability (HT1080; 1.111 µM): 1.05 ± 0.033
- relative viability (HT1080; 3.333 µM): 1.07 ± 0.039
- relative viability (HT1080; 10 µM): 1.01 ± 0.025
- relative viability (RD; 0.00017 µM): 1.07 ± 0.033
- relative viability (RD; 0.00051 µM): 1.06 ± 0.044
- relative viability (RD; 0.00152 µM): 1.08 ± 0.011
- relative viability (RD; 0.00457 µM): 1.07 ± 0.056
- relative viability (RD; 0.01372 µM): 1.11 ± 0.034
- relative viability (RD; 0.04115 µM): 1.1 ± 0.051
- relative viability (RD; 0.1235 µM): 1.1 ± 0.069
- relative viability (RD; 0.3704 µM): 1.091 ± 0.0019
- relative viability (RD; 1.111 µM): 1.08 ± 0.062
- relative viability (RD; 3.333 µM): 1.07 ± 0.067
- relative viability (RD; 10 µM): 0.964 ± 0.055
- relative viability (SW684; 0.00017 µM): 1.1 ± 0.037
- relative viability (SW684; 0.00051 µM): 1.11 ± 0.025
- relative viability (SW684; 0.00152 µM): 1.12 ± 0.026
- relative viability (SW684; 0.00457 µM): 1.13 ± 0.055
- relative viability (SW684; 0.01372 µM): 1.146 ± 0.003
- relative viability (SW684; 0.04115 µM): 1.15 ± 0.034
- relative viability (SW684; 0.1235 µM): 1.12 ± 0.034
- relative viability (SW684; 0.3704 µM): 1.15 ± 0.025
- relative viability (SW684; 1.111 µM): 1.12 ± 0.033
- relative viability (SW684; 3.333 µM): 1.16 ± 0.056
- relative viability (SW684; 10 µM): 1.21 ± 0.024
- relative viability (SK-ES-1; 0.00017 µM): 1.04 ± 0.02
- relative viability (SK-ES-1; 0.00051 µM): 1.04 ± 0.042
- relative viability (SK-ES-1; 0.00152 µM): 1.07 ± 0.04
- relative viability (SK-ES-1; 0.00457 µM): 1.07 ± 0.043
- relative viability (SK-ES-1; 0.01372 µM): 1.02 ± 0.02
- relative viability (SK-ES-1; 0.04115 µM): 1.05 ± 0.027
- relative viability (SK-ES-1; 0.1235 µM): 1.04 ± 0.04
- relative viability (SK-ES-1; 0.3704 µM): 0.997 ± 0.039
- relative viability (SK-ES-1; 1.111 µM): 1.022 ± 0.0096
- relative viability (SK-ES-1; 3.333 µM): 1.06 ± 0.053
- relative viability (SK-ES-1; 10 µM): 0.952 ± 0.027
